Experimental data reported in PubChem BioAssay AID248 (DTP/NCI, 2004).
Values joined by “and” are separate entries in the source; they are usually repeats but may differ in a detail not shown here. Equal values may be shown once. Toxic doses and inconclusive results are not listed. Rule as the data show it: active = T/C of 150% or more; inactive = T/C below 125%.

Tested on: L1210 leukemia ip in BDF1 mice, survival T/C
Experiment: NCI In Vivo Anticancer Drug Screen. Data for tumor model L1210 Leukemia (intraperitoneal) in B6D2F1 (BDF1) mice
Conditions: endpoint: mean survival time, higher = longer survival
Summary of the method: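 In this screen, tumor-bearing mice given compound are compared to those given vehicle, and their survival values are reported as a treated-to-control quotient.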

[1] = dose: 100.0 mg/kg/injection, schedule: Q01DX009 (ip), vehicle: saline with Tween-80
[2] = dose: 100.0 mg/kg/injection, schedule: Q04DX003 (ip), vehicle: saline with Tween-80
[3] = dose: 200.0 mg/kg/injection, schedule: Q01DX009 (ip), vehicle: saline with Tween-80
[4] = dose: 200.0 mg/kg/injection, schedule: Q04DX003 (ip), vehicle: saline with Tween-80
[5] = dose: 400.0 mg/kg/injection, schedule: Q01DX009 (ip), vehicle: saline with Tween-80
[6] = dose: 400.0 mg/kg/injection, schedule: Q04DX003 (ip), vehicle: saline with Tween-80
[7] = dose: 100.0 mg/kg/injection, schedule: Q01DX001 (ip), vehicle: carboxymethylcellulose (CMC)
[8] = dose: 200.0 mg/kg/injection, schedule: Q01DX001 (ip), vehicle: carboxymethylcellulose (CMC)
[9] = dose: 400.0 mg/kg/injection, schedule: Q01DX001 (ip), vehicle: carboxymethylcellulose (CMC)
[10] = dose: 100.0 mg/kg/injection, schedule: Q01DX001 (ip), vehicle: saline
[11] = dose: 100.0 mg/kg/injection, schedule: Q04DX003 (ip), vehicle: Klucel (hydroxypropylcellulose) (HPC)
[12] = dose: 200.0 mg/kg/injection, schedule: Q04DX003 (ip), vehicle: Klucel (hydroxypropylcellulose) (HPC)
[13] = dose: 400.0 mg/kg/injection, schedule: Q04DX003 (ip), vehicle: Klucel (hydroxypropylcellulose) (HPC)
[14] = dose: 100.0 mg/kg/injection, schedule: Q04DX003 (ip), vehicle: saline
[15] = dose: 200.0 mg/kg/injection, schedule: Q04DX003 (ip), vehicle: saline
[16] = dose: 400.0 mg/kg/injection, schedule: Q04DX003 (ip), vehicle: saline
[17] = dose: 100.0 mg/kg/injection, schedule: Q04DX002 (ip), vehicle: saline with Tween-80
[18] = dose: 200.0 mg/kg/injection, schedule: Q04DX002 (ip), vehicle: saline with Tween-80
[19] = dose: 400.0 mg/kg/injection, schedule: Q04DX002 (ip), vehicle: saline with Tween-80

Measured: T/C

C=CCNC(=S)Nc1ccc(OC(=O)NC2CCCCC2)cc1
inactive: [1] 110 % of control | [2] 110 % of control | [3] 106 % of control | [4] 113 % of control | [5] 102 % of control | [6] 98 % of control

NNC(=O)c1n[nH]c(=S)[nH]c1=O
inactive: [7] 98 % of control | [8] 103 % of control | [9] 95 % of control

CCC(CC)C(=O)O.[Ag]
inactive: [10] 101 % of control

OCCN1CCC(CCCC2CCN(CCO)CC2)CC1
inactive: dose: 10.0 mg/kg/injection, schedule: Q01DX Z (ip), vehicle: saline 94 % of control | dose: 30.0 mg/kg/injection, schedule: Q01DX Z (ip), vehicle: saline 92 % of control | dose: 100.0 mg/kg/injection, schedule: Q01DX Z (ip), vehicle: saline 94 % of control

CCC(Sc1ccccc1[N+](=O)[O-])[N+](=O)[O-] (stereo not drawn)
inactive: [11] 105 % of control | [12] 95 % of control | [13] 100 % of control

C[N+](C)(C)CC1CCCC1C[N+](C)(C)C (stereo not drawn)
inactive: dose: 50.0 mg/kg/injection, schedule: Q04DX003 (ip), vehicle: saline 110 % of control | [14] 96 % of control | [15] 102 % of control | [16] 90 % of control

OCC1(CO)CCCCC1
inactive: [11] 105 % of control | [12] 109 % of control | [13] 105 % of control

Cc1c(N)cccc1N
inactive: dose: 12.5 mg/kg/injection, schedule: Q01DX009 (ip), vehicle: saline with Tween-80 119 % of control | dose: 12.5 mg/kg/injection, schedule: Q04DX003 (ip), vehicle: saline with Tween-80 95 % of control | dose: 25.0 mg/kg/injection, schedule: Q01DX009 (ip), vehicle: saline with Tween-80 108 % of control | dose: 25.0 mg/kg/injection, schedule: Q04DX003 (ip), vehicle: saline with Tween-80 117 % of control | dose: 50.0 mg/kg/injection, schedule: Q04DX003 (ip), vehicle: saline with Tween-80 117 % of control

OC(CCl)CN1CC[N+]2(CC1)CC[N+]1(CCN(CC(O)CCl)CC1)CC2 (stereo not drawn)
inactive: dose: 37.5 mg/kg/injection, schedule: Q01DX009 (ip), vehicle: water 100 % of control | dose: 59.0 mg/kg/injection, schedule: Q01DX009 (ip), vehicle: water 105 % of control | dose: 75.0 mg/kg/injection, schedule: Q01DX009 (ip), vehicle: water 101 % of control | dose: 88.0 mg/kg/injection, schedule: Q01DX009 (ip), vehicle: water 104 % of control | dose: 132.0 mg/kg/injection, schedule: Q01DX009 (ip), vehicle: water 107 % of control | dose: 150.0 mg/kg/injection, schedule: Q01DX009 (ip), vehicle: water 114 % of control | dose: 200.0 mg/kg/injection, schedule: Q01DX009 (ip), vehicle: water 102 % of control | dose: 300.0 mg/kg/injection, schedule: Q01DX009 (ip), vehicle: water 93 % of control and 95 % of control

CN1C2C=C(c3ccccc3)C(Br)C1CC2 (stereo not drawn)
inactive: dose: 20.0 mg/kg/injection, schedule: Q04DX003 (ip), vehicle: saline with Tween-80 95 % of control | dose: 40.0 mg/kg/injection, schedule: Q04DX003 (ip), vehicle: saline with Tween-80 97 % of control | dose: 75.0 mg/kg/injection, schedule: Q01DX001 (ip), vehicle: saline 102 % of control | dose: 150.0 mg/kg/injection, schedule: Q01DX001 (ip), vehicle: saline 98 % of control

COC1OC(CCl)C(Cl)C(OS(=O)(=O)c2ccc(C)cc2)C1OS(=O)(=O)c1ccc(C)cc1 (stereo not drawn)
inactive: dose: 100.0 mg/kg/injection, schedule: Q04DX002 (ip), vehicle: Klucel (hydroxypropylcellulose) (HPC) 100 % of control | [17] 90 % of control | [18] 101 % of control | dose: 400.0 mg/kg/injection, schedule: Q04DX002 (ip), vehicle: Klucel (hydroxypropylcellulose) (HPC) 94 % of control | [19] 93 % of control

CN(C)c1ccccc1C(=O)N/N=C\c1ccc(O)c(O)c1
inactive: [1] 87 % of control | [17] 94 % of control | [3] 87 % of control | [18] 94 % of control | [5] 90 % of control | [19] 90 % of control

CC(=O)N(C)c1ccc(S(=O)(=O)F)cc1
inactive: dose: 100.0 mg/kg/injection, schedule: Q01DX001 (ip), vehicle: Klucel (hydroxypropylcellulose) (HPC) 103 % of control | dose: 200.0 mg/kg/injection, schedule: Q01DX001 (ip), vehicle: Klucel (hydroxypropylcellulose) (HPC) 103 % of control

CC(=O)/C(C)=C/c1ccccc1
inactive: dose: 100.0 mg/kg/injection, schedule: Q01DX001 (ip), vehicle: other 107 % of control | [2] 100 % of control | dose: 200.0 mg/kg/injection, schedule: Q01DX001 (ip), vehicle: other 96 % of control | [4] 105 % of control | dose: 400.0 mg/kg/injection, schedule: Q01DX001 (ip), vehicle: other 91 % of control | [6] 100 % of control

O=COCC(O)COC=O
inactive: dose: 12.5 mg/kg/injection, schedule: Q01DX009 (ip), vehicle: saline 101 % of control | dose: 25.0 mg/kg/injection, schedule: Q01DX009 (ip), vehicle: saline 104 % of control | dose: 50.0 mg/kg/injection, schedule: Q01DX009 (ip), vehicle: saline 87 % of control | dose: 100.0 mg/kg/injection, schedule: Q01DX009 (ip), vehicle: saline 101 % of control | [14] 95 % of control | [15] 90 % of control | [16] 97 % of control

CCOC=Nc1cc(-n2cnc3c(Cl)ncnc32)ccc1C
inactive: [7] 87 % of control | [8] 98 % of control | [9] 96 % of control

O=C1CCCCC1(CCc1ccncc1)CCc1ccncc1
inactive: dose: 44.0 mg/kg/injection, schedule: Q01DX Z (ip), vehicle: methylcellulose (MC) 96 % of control | dose: 66.0 mg/kg/injection, schedule: Q01DX Z (ip), vehicle: methylcellulose (MC) 102 % of control | dose: 100.0 mg/kg/injection, schedule: Q01DX Z (ip), vehicle: methylcellulose (MC) 109 % of control

C=CC(C)CCCC(C)C (stereo not drawn)
inactive: [14] 91 % of control | [15] 97 % of control | [16] 91 % of control

O=C(NCCNC(c1ccccc1)(c1ccccc1)c1ccccc1)C(F)(F)F
inactive: dose: 50.0 mg/kg/injection, schedule: Q01DX009 (ip), vehicle: Klucel (hydroxypropylcellulose) (HPC) 105 % of control | dose: 100.0 mg/kg/injection, schedule: Q01DX009 (ip), vehicle: Klucel (hydroxypropylcellulose) (HPC) 100 % of control | [11] 91 % of control | dose: 200.0 mg/kg/injection, schedule: Q01DX009 (ip), vehicle: Klucel (hydroxypropylcellulose) (HPC) 96 % of control | [12] 100 % of control | [13] 93 % of control

N=C(CN1CCCCC1)N1CCCCC1
inactive: dose: 100.0 mg/kg/injection, schedule: Q04DX002 (ip), vehicle: saline 104 % of control

CC(SC(C)C(=O)NN)C(=O)NN (stereo not drawn)
inactive: dose: 50.0 mg/kg/injection, schedule: Q01DX001 (ip), vehicle: saline 102 % of control | [10] 107 % of control | dose: 200.0 mg/kg/injection, schedule: Q01DX001 (ip), vehicle: saline 105 % of control | dose: 200.0 mg/kg/injection, schedule: Q01DX Z (ip), vehicle: carboxymethylcellulose (CMC) 94 % of control | dose: 296.0 mg/kg/injection, schedule: Q01DX Z (ip), vehicle: methylcellulose (MC) 98 % of control | dose: 370.0 mg/kg/injection, schedule: Q01DX Z (ip), vehicle: methylcellulose (MC) 104 % of control | dose: 400.0 mg/kg/injection, schedule: Q01DX001 (ip), vehicle: saline 100 % of control | dose: 400.0 mg/kg/injection, schedule: Q01DX Z (ip), vehicle: carboxymethylcellulose (CMC) 97 % of control | dose: 555.0 mg/kg/injection, schedule: Q01DX Z (ip), vehicle: methylcellulose (MC) 110 % of control | dose: 800.0 mg/kg/injection, schedule: Q01DX Z (ip), vehicle: carboxymethylcellulose (CMC) 111 % of control | dose: 833.0 mg/kg/injection, schedule: Q01DX Z (ip), vehicle: methylcellulose (MC) 119 % of control
